Source: US20240279227A1, “FUSED HETEROCYCLIC DERIVATIVES” (Janssen Sciences Ireland Unlimited Company, priority 2021, published 2024)

Columns and labels:
HBV = experiment: Anti-HBV activity in HepG2.117 cell line (intracellular HBV DNA, real-time PCR); assay type: cell-based, hepatitis B virus; details: HepG2.117 cells, HBV replication induced, 3 days of treatment, intracellular HBV DNA by real-time PCR
Method in brief: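 HepG2.117 cells (Tet-off, doxycycline-free HBV replication) induced for HBV replication, then exposed to serially diluted compound for 3 days. Intracellular HBV DNA quantified by real-time PCR with HBV-specific primers and probe.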

HepG2 or HepG2.117 cells = experiment: Cytotoxicity, ATPlite Luminescence Assay; assay type: cell-based, human; details: 3-days incubation unless marked with *, ATPlite viability
Method in brief: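 Incubate with compound for 3 or 4 days, then assess cell viability via ATPlite luminescence.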

[1] = Human liver microsome stability; assay type: in vitro ADME; details: 1 μM compound, NADPH 1 mM, pH 7.4, 37° C., 0-60 min; for HLM Metabolism t1/2: pooled human liver microsomes 0.5 mg/mL
Method in brief: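 Pooled human liver microsomes (0.5 mg/mL) incubated at 37 °C with 1 μM compound in 0.1 M phosphate pH 7.4, 1 mM MgCl2; 1 mM NADPH starts reaction. Samples quenched in acetonitrile at 0–60 min, analysed by LC-MS against internal standard; half-life from slope of ln peak-area ratio versus time.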

Compound	EC50 (HBV) [µM]	CC50 (HepG2 or HepG2.117 cells) [µM]	HLM Metabolism t1/2 [1] [h]	half-life at 1 μM ([1]; human, pooled human liver microsomes, pH 7.4, pooled human liver microsomes 0.5 mg/mL, read-out: HLM Metabolism t1/2) [h]
CNC(=O)[C@@H]1CN(C(C)c2cccc(Cl)n2)C(=O)c2c3c(nn21)C[C@@H](C)N(C(=O)c1ccc(Cl)c(Cl)c1)C3 (single isomer, unassigned) [Compound 38B, (3R,7S)-9-((S*)-1-(6-chloropyridin-2-yl)ethyl)-2-(3,4-dichlorobenzoyl)-N,3-dimethyl-10-oxo-1,2,3,4,7,8,9,10-octahydropyrido[4′,3′:3,4]pyrazolo[1,5-a]pyrazine-7-carboxamide]	0.04	> 50	2.4	–
CNC(=O)[C@@H]1CN(C(C)c2ccc(C3CC3)nc2)C(=O)c2c3c(nn21)C[C@@H](C)N(C(=O)c1ccc(Cl)c(Cl)c1)C3 (single isomer, unassigned) [Compound 32B, (3R,7S)-9-((S*)-1-(6-cyclopropylpyridin-3-yl)ethyl)-2-(3,4-dichlorobenzoyl)-N,3-dimethyl-10-oxo-1,2,3,4,7,8,9,10-octahydropyrido[4′,3′:3,4]pyrazolo[1,5-a]pyrazine-7-carboxamide]	0.011	48.7	>3	–
CC(c1ccc(OC(F)F)cc1)N1C[C@@H](C(=O)NC2CC2)n2nc3c(c2C1=O)CN(C(=O)c1ccc(Cl)c(C#N)c1)[C@H](C)C3 (single isomer, unassigned) [Compound 26B, (3R,7S)-2-(4-chloro-3-cyanobenzoyl)-N-cyclopropyl-9-((S*)-1-(4-(difluoromethoxy)phenyl)ethyl)-3-methyl-10-oxo-1,2,3,4,7,8,9,10-octahydropyrido[4′,3′:3,4]pyrazolo[1,5-a]pyrazine-7-carboxamide]	0.09	> 50	1.12	–
CNC(=O)[C@@H]1CN(C(C)c2cc(F)ccn2)C(=O)c2c3c(nn21)C[C@@H](C)N(C(=O)c1ccc(Cl)c(Cl)c1)C3 (single isomer, unassigned) [Compound 42B, (3R,7S)-2-(3,4-dichlorobenzoyl)-9-((S*)-1-(4-fluoropyridin-2-yl)ethyl)-N,3-dimethyl-10-oxo-1,2,3,4,7,8,9,10-octahydropyrido[4′,3′:3,4]pyrazolo[1,5-a]pyrazine-7-carboxamide]	0.02	> 50	>3	–
CNC(=O)[C@@H]1CN(C(C)c2ccc(C#N)cc2)C(=O)c2c3c(nn21)C[C@@H](C)N(C(=O)c1ccc(Cl)c(Cl)c1)C3 (single isomer, unassigned) [Compound 23B, (3R,7S)-9-((S*)-1-(4-cyanophenyl)ethyl)-2-(3,4-dichlorobenzoyl)-N,3-dimethyl-10-oxo-1,2,3,4,7,8,9,10-octahydropyrido[4′,3′:3,4]pyrazolo[1,5-a]pyrazine-7-carboxamide]	0.023	> 50	>3	–
CNC(=O)[C@@H]1CN(C(C)c2ccc(C(C)(C)O)cn2)C(=O)c2c3c(nn21)C[C@@H](C)N(C(=O)c1ccc(Cl)c(Cl)c1)C3 (single isomer, unassigned) [Compound 39B, (3R,7S)-2-(3,4-dichlorobenzoyl)-9-((S*)-1-(5-(2-hydroxypropan-2-yl)pyridin-2-yl)ethyl)-N,3-dimethyl-10-oxo-1,2,3,4,7,8,9,10-octahydropyrido[4′,3′:3,4]pyrazolo[1,5-a]pyrazine-7-carboxamide]	0.12	> 50	>3	–
CNC(=O)[C@@H]1CN(C(C)c2ccc(C(F)F)nc2)C(=O)c2c3c(nn21)C[C@@H](C)N(C(=O)c1ccc(Cl)c(Cl)c1)C3 (single isomer, unassigned) [Compound 36B, (3R,7S)-2-(3,4-dichlorobenzoyl)-9-((S*)-1-(6-(difluoromethyl)pyridin-3-yl)ethyl)-N,3-dimethyl-10-oxo-1,2,3,4,7,8,9,10-octahydropyrido[4′,3′:3,4]pyrazolo[1,5-a]pyrazine-7-carboxamide]	0.05	> 50	>3	–
CCC(c1ccc(S(C)(=O)=O)cc1)N1C[C@@H](C(=O)NC)n2nc3c(c2C1=O)CN(C(=O)c1ccc(Cl)c(Cl)c1)[C@H](C)C3 (single isomer, unassigned) [Compound 22B, (3R,7S)-2-(3,4-dichlorobenzoyl)-N,3-dimethyl-9-((S*)-1-(4-(methylsulfonyl)phenyl)propyl)-10-oxo-1,2,3,4,7,8,9,10-octahydropyrido[4′,3′:3,4]pyrazolo[1,5-a]pyrazine-7-carboxamide]	0.05	> 50	>3	–
CNC(=O)[C@@H]1CN(C(C)c2ccc(S(C)(=O)=O)cc2)C(=O)c2c3c(nn21)C[C@@H](C)N(C(=O)c1ccc(Cl)c(C(F)(F)F)c1)C3 (single isomer, unassigned) [Compound 19B, (3R,7S)-2-(4-chloro-3-(trifluoromethyl)benzoyl)-N,3-dimethyl-9-((S*)-1-(4-(methylsulfonyl)phenyl)ethyl)-10-oxo-1,2,3,4,7,8,9,10-octahydropyrido[4′,3′:3,4]pyrazolo[1,5-a]pyrazine-7-carboxamide]	0.028	> 50	>3	–
CNC(=O)[C@@H]1CN(C(C)c2ccc(-n3nnc(C)n3)cc2)C(=O)c2c3c(nn21)C[C@@H](C)N(C(=O)c1ccc(Cl)c(Cl)c1)C3 (single isomer, unassigned) [Compound 30B, (3R,7S)-2-(3,4-dichlorobenzoyl)-N,3-dimethyl-9-((S*)-1-(4-(5-methyl-2H-tetrazol-2-yl)phenyl)ethyl)-10-oxo-1,2,3,4,7,8,9,10-octahydropyrido[4′,3′:3,4]pyrazolo[1,5-a]pyrazine-7-carboxamide]	0.017	17.2	1.52	–
CNC(=O)[C@@H]1CN(C(C)c2ccc(-c3c(C)noc3C)nc2)C(=O)c2c3c(nn21)C[C@@H](C)N(C(=O)c1ccc(Cl)c(Cl)c1)C3 (single isomer, unassigned) [Compound 35B, (3R,7S)-2-(3,4-dichlorobenzoyl)-9-((S*)-1-(6-(3,5-dimethylisoxazol-4-yl)pyridin-3-yl)ethyl)-N,3-dimethyl-10-oxo-1,2,3,4,7,8,9,10-octahydropyrido[4′,3′:3,4]pyrazolo[1,5-a]pyrazine-7-carboxamide]	0.082	> 50	2.17	–
CNC(=O)[C@@H]1CN(C(C)c2ccc(-n3ncnc3C)cn2)C(=O)c2c3c(nn21)C[C@@H](C)N(C(=O)c1ccc(Cl)c(Cl)c1)C3 (single isomer, unassigned) [Compound 41B, (3R,7S)-2-(3,4-dichlorobenzoyl)-N,3-dimethyl-9-((S*)-1-(5-(5-methyl-1H-1,2,4-triazol-1-yl)pyridin-2-yl)ethyl)-10-oxo-1,2,3,4,7,8,9,10-octahydropyrido[4′,3′:3,4] pyrazolo[1,5-a]pyrazine-7-carboxamide]	0.1	> 50	>3	–
CNC(=O)[C@@H]1CN(C(C)c2ccc(-n3cncn3)cc2)C(=O)c2c3c(nn21)C[C@@H](C)N(C(=O)c1ccc(Cl)c(Cl)c1)C3 (single isomer, unassigned) [Compound 2B, (3R,7S)-9-((S*)-1-(4-(1H-1,2,4-triazol-1-yl)phenyl)ethyl)-2-(3,4-dichlorobenzoyl)-N,3-dimethyl-10-oxo-1,2,3,4,7,8,9,10-octahydropyrido[4′,3′:3,4]pyrazolo[1,5-a]pyrazine-7-carboxamide]	0.017	> 50	>3	–
CNC(=O)[C@@H]1CN(C(C)c2ccc(OC(F)F)nc2)C(=O)c2c3c(nn21)C[C@@H](C)N(C(=O)c1ccc(Cl)c(Cl)c1)C3 (single isomer, unassigned) [Compound 11A, (3R,7S)-2-(3,4-Dichlorobenzoyl)-9-((R*)-1-(6-(difluoromethoxy)pyridin-3-yl)ethyl)-N,3-dimethyl-10-oxo-1,2,3,4,7,8,9,10-octahydropyrido[4′,3′:3,4]pyrazolo[1,5-a]pyrazine-7-carboxamide]	0.12	> 50	–	> 3
CNC(=O)[C@@H]1CN(C(C)c2ccc(-n3cncn3)cn2)C(=O)c2c3c(nn21)C[C@@H](C)N(C(=O)c1ccc(Cl)c(Cl)c1)C3 (single isomer, unassigned) [Compound 40B, (3R,7S)-9-((S*)-1-(5-(1H-1,2,4-triazol-1-yl)pyridin-2-yl)ethyl)-2-(3,4-dichlorobenzoyl)-N,3-dimethyl-10-oxo-1,2,3,4,7,8,9,10-octahydropyrido[4′,3′:3,4]pyrazolo[1,5-a]pyrazine-7-carboxamide]	0.097	> 50	>3	–
CNC(=O)[C@@H]1CN(C(C)c2ccc(-c3nnnn3C)cc2)C(=O)c2c3c(nn21)C[C@@H](C)N(C(=O)c1ccc(Cl)c(Cl)c1)C3 (single isomer, unassigned) [Compound 29B, (3R,7S)-2-(3,4-dichlorobenzoyl)-N,3-dimethyl-9-((S*)-1-(4-(1-methyl-1H-tetrazol-5-yl)phenyl)ethyl)-10-oxo-1,2,3,4,7,8,9,10-octahydropyrido[4′,3′:3,4]pyrazolo[1,5-a]pyrazine-7-carboxamide]	0.082	> 50	>3	–
